Data published in patent US9846168B2, “Fluorescent metal ion indicators with large stokes shifts” (LIFE TECHNOLOGIES CORPORATION, priority 2004, dated 2017).

Experiments:
[1] = Calcium binding: fluorescence titration in Ca++ buffers (0-39 μM), Kd calculated; conditions: fluorescence change on calcium binding
Description: (§1) In all cases, samples were dissolved in nanopure(np)-H2O at concentrations of approximately 1 mg/mL, except Compound 18 which was dissolved in 1:1 DMSO:npH2O. Non-quantitative aliquots of these solutions were added to approximately 3 mL of 39 μM Ca++ buffer, 100 mM KCl, 30 mM MOPS (pH7.2) (Compounds 5, 10, 13), Zero Ca++ buffer, 100 mM KCl, 30 mM MOPS (pH7.2) (Compound 18), or npH2O (Compound 21). Absorption spectra were obtained using a Perkin Elmer UV/Vis Spectrometer (Lambda 35 or 40). Fluorescence samples were prepared by pipetting aliquots of respective stock solutions to a series of disposable cuvettes containing 2 mL of Ca++ buffers from Calcium Calibration Buffer Kit #2 (Invitrogen cat.#3009) (0-39 μM). The final concentration of compound ranged from approximately 0.1-4 μM. Samples were excited at their wavelength of maximum absorption and spectra were obtained using a Perkin Elmer Luminescence Spectrometer (LS50B, LS55). Emission intensities were recorded at the respective maxima and Kd values calculated.

[2] = Absorption and fluorescence emission spectra of calcium binding compounds; assay type: physicochemical; conditions: for λem (nm): emission maximum, excited at wavelength of maximum absorption, Ca++ buffers 0-39 μM; for λex (nm): wavelength of maximum absorption, 39 μM Ca++ buffer, 100 mM KCl, 30 mM MOPS pH7.2 (Compounds 5, 10, 13), Zero Ca++ buffer (Compound 18), npH2O (Compound 21)
Description: as §1

With Cc1ccc(N(CC(=O)[O-])CC(=O)[O-])c(OCCOc2cc(CNS(=O)(=O)c3cccc4c(N(C)C)cccc34)ccc2N(CC(=O)[O-])CC(=O)[O-])c1.[K+].[K+].[K+].[K+] [Compound 5] the “ΔF = Fb/Fo” value [1] was 3, the “λem (nm)” value [2] was 549 nm and the “λex (nm)” value [2] was 331 nm.

With Cc1ccc(N(CC(=O)[O-])CC(=O)[O-])c(OCCOc2cc(CN3C(=O)c4cccc5c(N)ccc(c45)C3=O)ccc2N(CC(=O)[O-])CC(=O)[O-])c1.[K+].[K+].[K+].[K+] [Compound 13] the “ΔF = Fb/Fo” value [1] was 12, the “λem (nm)” value [2] was 550 nm and the “λex (nm)” value [2] was 432 nm.

With Cc1ccc(N(CC(=O)[O-])CC(=O)[O-])c(OCCOc2cc(CNC(=O)c3c4oc5cc(O)ccc5nc-4ccc3=O)ccc2N(CC(=O)[O-])CC(=O)[O-])c1.[Li+].[Li+].[Li+].[Li+] [Compound 18] the “ΔF = Fb/Fo” value [1] was 5, the “λem (nm)” value [2] was 589 nm and the “λex (nm)” value [2] was 550 nm.

In the case of Cc1ccc(N(CC(=O)[O-])CC(=O)[O-])c(OCCOc2cc(CNC(=O)c3cc(=O)cc4oc5cc(N(C)C)ccc5nc3-4)ccc2N(CC(=O)[O-])CC(=O)[O-])c1.[Li+].[Li+].[Li+].[Li+] [Compound 21], the “ΔF = Fb/Fo” value [1] is reported as 11, the “λem (nm)” value [2] is reported as 641 nm and the “λex (nm)” value [2] is reported as 612 nm.
